The results in this text go back to article PMC6209519 (Organic & biomolecular chemistry, 2018).

The test system of one data set is chymotrypsin. Kind of data set: Enzymatic hydrolysis assay with chymotrypsin. The following applies: isolated enzyme chymotrypsin. The data set is classed as in vitro ADME.
The next data set has as its system HIV-1. The following applies: across the strains tested, compared with 1.

As for Enfuvirtide, the IC50 (commonly the concentration needed to halve the response being measured) amounted to 6.5 ± 0.6 nM with HIV-1 MN, 941 ± 328 nM in the data set on HIV-1 CZA97, 23.9 ± 2.1 nM with HIV-1 SF162 and 56 ± 1.6 nM with HIV-1 DU422.

As for MTWEEWDKKIEEYTKKIEELIγKS [Peptide 3], the “% remaining after 10 mins” value in the data set with chymotrypsin was found to be 17.6%. The “increase in antiviral activity relative to peptide 1” value with HIV-1 is recorded as under 2 fold.

With “MTWXEWDXKIEEYTKKIEELIγKS (sidechain bridge or staple) [Peptide 4]”, in the data set on chymotrypsin, the “% remaining after 10 mins” value was 57.2%.
